The results in this text go back to patent US20210107871A1 (priority 2017, published 2021).

The structures appear in SMILES notation.

Assay type in all cases: cell-based
Assay [1] concerns pseudotype VSV (expressing GFP) having the surface glycoprotein of Ebola virus (zaire sp.). Kind of assay: organism not typed. The following applies: for IC50: Vero C1008; for activity at 0.02 µM / activity at 0.078 µM / activity at 0.312 µM / activity at 0.625 µM / activity at 1.25 µM / activity at 2.5 µM / activity at 5 µM: Vesicular stomatitis virus, Vero C1008, 18 h, read-out: Viral Infection rate (%); for activity at 0.02 µM: Compound Conc. 0.020 μM; for activity at 0.078 µM: Compound Conc. 0.078 μM; for activity at 0.312 µM: Compound Conc. 0.312 μM; for activity at 0.625 µM: Compound Conc. 0.625 μM; for activity at 1.25 µM: Compound Conc. 1.25 μM; for activity at 2.5 µM: Compound Conc. 2.5 μM; for activity at 5 µM: Compound Conc. 5 μM.

Assay [2] has as its system sudan Ebola virus (pseudotype VSV). Briefly: microbe, parasite or virus in culture. The following applies: Sudan ebolavirus, read-out: C values.
For assay [3], the system named is bundibugyo Ebola virus (pseudotype VSV). Briefly: microbe, parasite or virus in culture. The following applies: read-out: C values.
The subject of assay [4] is tai forest Ebola virus (pseudotype VSV). Kind of assay: microbe, parasite or virus in culture. The conditions noted are these: read-out: C values.
Assay [5] has as its system reston Ebola virus (pseudotype VSV). Briefly: microbe, parasite or virus in culture. The following applies: Reston ebolavirus, read-out: C values.
Assay [6] concerns Marburgvirus (Angola strain) (pseudotype VSV). Kind of assay: microbe, parasite or virus in culture. The following applies: Orthomarburgvirus, read-out: C values.

For `CCN(CC)CCCN(c1ccc(OC)cc1-c1ccccc1)S(=O)(=O)c1ccccc1` [4-17, N-[3-(diethylamino)propyl]-N-(4-methoxy-2-phenyl-phenyl)benzensulfonamide], in assay [1], the IC50 is around 50 nM, the activity at 0.02 µM came to 72.6%, the activity at 0.078 µM is 34.6% and the activity at 0.312 µM was found to be 1.91%. In assay [1], the activity at 0.625 µM came out at 2.05%, the activity at 1.25 µM stood at 0.2%, the activity at 2.5 µM turned out to be 0.81% and the activity at 5 µM worked out at 0.22%. Further, the IC50 in assay [2] was around 300 nM. Besides, the IC50 in assay [3] is around 50 nM. The IC50 in assay [4] was 500 to 1000 nM. In addition, the IC50 in assay [5] is around 1000 nM. In assay [6], the IC50 lay within 1000 to 5000 nM.
On to `CCN1CCC(CN(c2ccc(OC)cc2-c2ccccc2)S(=O)(=O)c2ccccc2)CC1` [4-21], for which, in assay [1], the IC50 was around 50 nM, the activity at 0.02 µM was 64.6%, the activity at 0.078 µM was 28.5% and the activity at 0.312 µM came out at 0.75%. Moreover, in assay [1], the activity at 0.625 µM worked out at 0.22%, the activity at 1.25 µM is 0.18%, the activity at 2.5 µM worked out at 0.12% and the activity at 5 µM came out at 0.17%. Besides, the IC50 in assay [2] was around 300 nM. For the same molecule, the IC50 in assay [3] is around 50 nM. Moreover, the IC50 in assay [4] was 500 to 1000 nM. The IC50 in assay [5] is around 1000 nM. Further, the IC50 in assay [6] lay within 1000 to 5000 nM.
Turning to `COc1ccc(N(CCCN(C)C)S(=O)(=O)c2ccccc2)c(-c2ccccc2)c1` [4-27, N-[3-(dimethylamimo)propyl]-N-(4-methoxy-2-phenyl-phenyl)benzensulfonamide], in assay [1], the IC50 was around 50 nM, the activity at 0.02 µM was found to be 81.5%, the activity at 0.078 µM is 45% and the activity at 0.312 µM came out at 3.49%. For the same molecule, in assay [1], the activity at 0.625 µM was 0.4%, the activity at 1.25 µM stood at 0.18%, the activity at 2.5 µM was 0.14% and the activity at 5 µM was found to be 0.2%. For the same molecule, the IC50 in assay [2] is around 300 nM. In addition, the IC50 in assay [3] was around 50 nM. For the same molecule, in assay [4], the IC50 was 500 to 1000 nM. Further, the IC50 in assay [5] was around 1000 nM. Further, the IC50 in assay [6] fell in the range of 1000 to 5000 nM.
